Results: patent US20100120690A1, “Polypeptides Having Antimicrobial Activity and Polynucleotides Encoding Same” (Novozymes Adenium Biotech A/S, priority 2005, published 2010)

Each sequence was assayed on Staphylococcus carnosus ATCC51365 (assay: Yeast screening assay: radial diffusion assay of yeast supernatants). Details: yeast supernatant, clearing zone in radial diffusion assay.
Format: cell-based
Design: key: An activity of 3 is better than Plectasin; An activity of 2 corresponds to the activity of Plectasin; 1 is worse than Plectasin
Description: A range of antimicrobial polypeptides, which are variants of SEQ ID NO: 1 (Plectasin), were tested for antimicrobial activity by expressing them in S. cerevisae and screening the supernatant of the yeast transformants for antimicrobial activity against Staphylococcus carnosus ATCC51365.
Radial Diffusion Assay was carried out as described in Methods in Molecular Biology, Vol. 78, Antibacterial peptide protocol, William M. Shafer, Human Press.
200-300 yeast transformant colonies were plated on 14 cm round plates containing 25 mL SC growth medium supplemented with 1.5% galactose, 0.5% glucose and 1.5% agarose. Plates were incubated for three hours at room temperature, overlaid with 25 mL of the same growth medium and allowed to grow for three days at 30° C. Then the plates were overlaid with 25 mL of LB growth medium containing 1.5% agarose and 10^5 cells of the indicator strain Staphylococcus carnosus and incubated at 30° C. overnight to allow growth of the bacterial cells. Next day, the plates were stained with 1.5 mM MTT to facilitate visualization of the clearing zones.
Yeast colonies creating clearing zones were transferred to microtiter plates containing 200 micro-L of SC growth medium supplemented with 2% glucose and ampicillin (100 mg/L). Such plates designated “master plates” were incubated for 2 days at 30° C. with shaking at 450 rpm to allow yeast growth.
10 micro-L SC growth medium from each well of the master plates were transferred to new microtiter plates containing 200 micro-L SC growth medium with 1.5% galactose and 0.5% glucose. These plates were called daughter plates and were incubated for 3 days at 30° C. under 450 rpm shaking to allow yeast growth and peptide synthesis.
Finally a Radial Diffusion Assay (RDA) was performed following the protocol described in Methods in Molecular Biology to analyse and quantify the antimicrobial activity of the yeast supernatants against S. carnosus.
Briefly, 30 mL of minimal underlay medium containing 1% agarose and 5×10^5 cfu/mL of S. carnosus was poured in an omnitray plate (Nunc, 242811). A Nunc TSP plate (#445497) was inserted immediately on the plate to allow a 96 well pattern formation. Once the media had solidified, the TSP plate was removed and 10 micro-L of yeast supernatant samples were applied on the holes. Plates were incubated 3 hours at 37° C. and overlaid with 15 mL of LB agar growth medium. Finally, plates were incubated overnight at 37° C. and coloured with 1.5 mM MTT to visualize the clearing zones.
Inspection and measurements of the clearing zones was performed on the plates. The corresponding yeast clones resulting in clearing zones of similar or increased size than the clones encoding for wild type plectasin were picked from the master plates and transferred to agar plates containing SC growth medium with 2% glucose and ampicillin (100 mg/L). Such plates were incubated for further 2 days at 30° C. to allow yeast growth. Subsequently, colony PCR was performed followed by sequence analysis to identify amino acid changes in the plectasin sequence.
An activity of 2 corresponds to the activity of Plectasin. An activity of 3 is better than Plectasin, and 1 is worse than Plectasin.
In the case of “GFGCNGPWDEDDMQCHNHCKSIKGYTGGYCAKGGFVCKCY [Mutation K26T]”, the “Activity (antimicrobial activity relative to the activity of plectasin)” value is reported as 2. For “GFGCNGPWDEDDMQCHNHCKSIKHYKGGYCAKGGFVCKCY [Mutation G24H]”, the “Activity (antimicrobial activity relative to the activity of plectasin)” value was 3. In the case of “GFGCNGPWDEDDMQCHNHCKSIKIYKGGYCAKGGFVCKCY [Mutation G24I]”, the “Activity (antimicrobial activity relative to the activity of plectasin)” value is reported as 2. In the case of “GFGCNGPWDEDDMQCHNHCKSIKKYKGGYCAKGGFVCKCY [Mutation G24K]”, the “Activity (antimicrobial activity relative to the activity of plectasin)” value is reported as 3. In the case of “GFGCNGPWDEDDMQCHNHCKSIKNYKGGYCAKGGFVCKCY [Mutation G24N]”, the “Activity (antimicrobial activity relative to the activity of plectasin)” value is reported as 3. “GFGCNGPWDEDDMQCHNHCKSIKPYKGGYCAKGGFVCKCY [Mutation G24P]” was tested, and the “Activity (antimicrobial activity relative to the activity of plectasin)” value was 2. In the case of “GFGCNGPWDEDDMQCHNHCKSIKQYKGGYCAKGGFVCKCY [Mutation G24Q]”, the “Activity (antimicrobial activity relative to the activity of plectasin)” value is reported as 2. “GFGCNGPWDEDDMQCHNHCKSIKSYKGGYCAKGGFVCKCY [Mutation G24S]” was tested, and the “Activity (antimicrobial activity relative to the activity of plectasin)” value was 2. For “GFGCNGPWDEDDMQCHNHCKSIKTYKGGYCAKGGFVCKCY [Mutation G24T]”, the “Activity (antimicrobial activity relative to the activity of plectasin)” value was 2. In the case of “GFGCNGPWDEDDMQCHNHCKSIKYYKGGYCAKGGFVCKCY [Mutation G24Y]”, the “Activity (antimicrobial activity relative to the activity of plectasin)” value is reported as 2. With “GFGCNGPWDEDDMQCHNHCKSLKGYKGGYCAKGGFVCKCY [Mutation I22L]” the “Activity (antimicrobial activity relative to the activity of plectasin)” value was 3. “GFGCNGPWDEDDMQCHNHCKSMKGYKGGYCAKGGFVCKCY [Mutation I22M]” was tested, and the “Activity (antimicrobial activity relative to the activity of plectasin)” value was 2. With “GFGCNGPWDEDDMQCHNHCKSTKGYKGGYCAKGGFVCKCY [Mutation I22T]” the “Activity (antimicrobial activity relative to the activity of plectasin)” value was 2. For “GFGCNGPWDEDDMQCHNHCKSVKGYKGGYCAKGGFVCKCY [Mutation I22V]”, the “Activity (antimicrobial activity relative to the activity of plectasin)” value was 3. For “GFGCNGPWDEDDMQCHNHCKSWKGYKGGYCAKGGFVCKCY [Mutation I22W]”, the “Activity (antimicrobial activity relative to the activity of plectasin)” value was 2. “GFGCNGPWDEDDMQCHNHCQSIKGYKGGYCAKGGFVCKCY [Mutation K20Q]” was tested, and the “Activity (antimicrobial activity relative to the activity of plectasin)” value was 2. In the case of “GFGCNGPWDEDDMQCHNLCKSIKGYKGGYCAKGGFVCKCY [Mutation H18L]”, the “Activity (antimicrobial activity relative to the activity of plectasin)” value is reported as 3. With “GFGCNGPWDEDDMQCHNQCKSIKGYKGGYCAKGGFVCKCY [Mutation H18Q]” the “Activity (antimicrobial activity relative to the activity of plectasin)” value was 2. “GFGCNGPWDEDDMQCHNTCKSIKGYKGGYCAKGGFVCKCY [Mutation H18T]” was tested, and the “Activity (antimicrobial activity relative to the activity of plectasin)” value was 2. For “GFGCNGPWDEDDMQCHNVCKSIKGYKGGYCAKGGFVCKCY [Mutation H18V]”, the “Activity (antimicrobial activity relative to the activity of plectasin)” value was 2. “GFGCNGPWDEDDMSCHNHCKSIKGYKGGYCAKGGFVCRCY [Q14S + K38R]” was tested, and the “Activity (antimicrobial activity relative to the activity of plectasin)” value was 2. For “GFGCNGPWDEDDMTCHNHCKSIKGYKGGYCAKGGFVCKCY [Mutation Q14T]”, the “Activity (antimicrobial activity relative to the activity of plectasin)” value was 2. In the case of “GFGCNGPWDEDDMVCHNHCKSIKGYKGGYCAKGGFVCKCY [Mutation Q14V]”, the “Activity (antimicrobial activity relative to the activity of plectasin)” value is reported as 2. For “GFGCNGPWDEDDMWCHNHCKSIKGYKGGYCAKGGFVCKCY [Mutation Q14W]”, the “Activity (antimicrobial activity relative to the activity of plectasin)” value was 2. In the case of “GFGCNGPWDEDDMYCHNHCKSIKGYKGGYCAKGGFVCKCY [Mutation Q14Y]”, the “Activity (antimicrobial activity relative to the activity of plectasin)” value is reported as 3. With “GFGCNGPWDEDDRQCHNHCKSIKGYKGGFCAKGGFVCKCY [M13R + Y29F]” the “Activity (antimicrobial activity relative to the activity of plectasin)” value was 2. With “GFGCNGPWDEDDVQCHNHCKSIKGYKGGYCAKGGFVCKCY [Mutation M13V]” the “Activity (antimicrobial activity relative to the activity of plectasin)” value was 3. “GFGCNGPWDEDDYQCHNHCKSIKGYKGGYCAKGGFVCKCY [Mutation M13Y]” was tested, and the “Activity (antimicrobial activity relative to the activity of plectasin)” value was 2. For “GFGCNGPWDEDPMQCHNHCKSIKGYKGGYCAKGGFVCKCY [Mutation D12P]”, the “Activity (antimicrobial activity relative to the activity of plectasin)” value was 2. In the case of “GFGCNGPWDEFDMQCHNHCKSIKGYKGGYCAKGGFVCKCY [Mutation D11F]”, the “Activity (antimicrobial activity relative to the activity of plectasin)” value is reported as 3. In the case of “GFGCNGPWDEGDMQCHNHCKSIKGYKGGYCAKGGFVCKCY [Mutation D11G]”, the “Activity (antimicrobial activity relative to the activity of plectasin)” value is reported as 3. With “GFGCNGPWDEGDMQCHSHCKSIKGYKGGYCAKGGFVCKCY [D11G + N17S]” the “Activity (antimicrobial activity relative to the activity of plectasin)” value was 3. “GFGCNGPWDEHDMQCHNHCKSIKGYKGGYCAKGGFVCKCY [Mutation D11H]” was tested, and the “Activity (antimicrobial activity relative to the activity of plectasin)” value was 3. With “GFGCNGPWDEIDMQCHNHCKSIKGYKGGYCAKGGFVCKCY [Mutation D11I]” the “Activity (antimicrobial activity relative to the activity of plectasin)” value was 3. For “GFGCNGPWDEKDMQCHNHCKSIKGYKGGYCAKGGFVCKCY [Mutation D11K]”, the “Activity (antimicrobial activity relative to the activity of plectasin)” value was 3. In the case of “GFGCNGPWDELDIQCHNHCKSIKGYKGGYCAKGGFVCKCY [D11L + M13I]”, the “Activity (antimicrobial activity relative to the activity of plectasin)” value is reported as 2. In the case of “GFGCNGPWDELDMQCHNHCKSIKGYKGGYCAKGGFVCKCY [Mutation D11L]”, the “Activity (antimicrobial activity relative to the activity of plectasin)” value is reported as 3. With “GFGCNGPWDEMDMQCHNHCKSIKGYKGGYCAKGGFVCKCY [Mutation D11M]” the “Activity (antimicrobial activity relative to the activity of plectasin)” value was 3. With “GFGCNGPWDENDMQCHNHCKSIKGYKGGYCAKGGFICKCY [D11N + V36I]” the “Activity (antimicrobial activity relative to the activity of plectasin)” value was 3. For “GFGCNGPWDEPDMQCHNHCKSIKGYKGGYCAKGGFVCKCY [Mutation D11P]”, the “Activity (antimicrobial activity relative to the activity of plectasin)” value was 3. For “GFGCNGPWDERDIQCHNHCKSIKGYKGGYCAKGGFVCKCY [D11R + M13I]”, the “Activity (antimicrobial activity relative to the activity of plectasin)” value was 3. For “GFGCNGPWDERDMQCHNHCKSIKGYKGGYCAKGGFVCKCY [Mutation D11R]”, the “Activity (antimicrobial activity relative to the activity of plectasin)” value was 3. With “GFGCNGPWDESDMQCHNHCKSIKGYKGGYCAKGGFVCKCY [Mutation D11S]” the “Activity (antimicrobial activity relative to the activity of plectasin)” value was 3. In the case of “GFGCNGPWDETDMQCHNHCKSIKGYKGGYCAKGGFVCKCY [Mutation D11T]”, the “Activity (antimicrobial activity relative to the activity of plectasin)” value is reported as 3. For “GFGCNGPWDEVDMQCHNHCKSIKGYKGGYCAKGGFVCKCY [Mutation D11V]”, the “Activity (antimicrobial activity relative to the activity of plectasin)” value was 3. With “GFGCNGPWDEWDMQCHNHCKSIKGYKGGYCAKGGFVCKCY [Mutation D11W]” the “Activity (antimicrobial activity relative to the activity of plectasin)” value was 3. With “GFGCNGPWDEYDMQCHNHCKSIKGYKGGYCAKGGFVCKCY [Mutation D11Y]” the “Activity (antimicrobial activity relative to the activity of plectasin)” value was 3. In the case of “GFGCNGPWDGDDMQCHNHCKSIKGYKGGYCAKGGFVCKCY [Mutation E10G]”, the “Activity (antimicrobial activity relative to the activity of plectasin)” value is reported as 3. In the case of “GFGCNGPWDGDDMRCHNHCKSIKGYKGGYCAKGGFVCKCY [E10G + Q14R]”, the “Activity (antimicrobial activity relative to the activity of plectasin)” value is reported as 3. For “GFGCNGPWDLDDMQCHNHCKSIKGYKGGYCAKGGFVCKCY [Mutation E10L]”, the “Activity (antimicrobial activity relative to the activity of plectasin)” value was 2. “GFGCNGPWDQDDMQCHNHCKSIKGYKGGYCAKGGFVCKCY [Mutation E10Q]” was tested, and the “Activity (antimicrobial activity relative to the activity of plectasin)” value was 2. For “GFGCNGPWDSDDMQCHNHCKSIKGYKGGYCAKGGFVCKCY [Mutation E10S]”, the “Activity (antimicrobial activity relative to the activity of plectasin)” value was 3. With “GFGCNGPWFEDDMQCHNHCKSIKGYKGGYCAKGGFVCKCY [Mutation D9F]” the “Activity (antimicrobial activity relative to the activity of plectasin)” value was 3. With “GFGCNGPWHEDDMQCHNHCKSIKGYKGGYCAKGGFVCKCY [Mutation D9H]” the “Activity (antimicrobial activity relative to the activity of plectasin)” value was 3. In the case of “GFGCNGPWIEDDMQCHNHCKSIKGYKGGYCAKGGFVCKCY [Mutation D9I]”, the “Activity (antimicrobial activity relative to the activity of plectasin)” value is reported as 2. With “GFGCNGPWLEDDMQCHNHCKSIKGYKGGYCAKGGFVCKCY [Mutation D9L]” the “Activity (antimicrobial activity relative to the activity of plectasin)” value was 3. For “GFGCNGPWLEDDMQCHNHCKSIKGYNGGYCAKGGFVCKCY [D9L + K26N]”, the “Activity (antimicrobial activity relative to the activity of plectasin)” value was 2. For “GFGCNGPWMEDDMQCHNHCKSIKGYKGGYCAKGGFVCKCY [Mutation D9M]”, the “Activity (antimicrobial activity relative to the activity of plectasin)” value was 3. “GFGCNGPWNEDDMQCHNHCKSIKGYKGGYCAKGGFVCKCY [Mutation D9N]” was tested, and the “Activity (antimicrobial activity relative to the activity of plectasin)” value was 3. “GFGCNGPWPEDDMQCHNHCKSIKGYKGGYCAKGGFVCKCY [Mutation D9P]” was tested, and the “Activity (antimicrobial activity relative to the activity of plectasin)” value was 3.
